Laboratory results as given in PubChem BioAssay (NCI).
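GI50 is the concentration that inhibits growth by half. TGI marks complete inhibition of growth.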

What was measured:
Assay in all cases: NCI tumour cell line growth inhibition, 384-well format
[1] = system: SK-OV-3 ovarian
[2] = system: COLO 205 colon
[3] = system: SN12C renal
[4] = system: CAKI-1 renal
[5] = system: MDA-MB-468 breast
[6] = system: MDA-MB-231 breast
[7] = system: RPMI-8226 leukemia
[8] = system: HS 578T breast
[9] = system: OVCAR-3 ovarian
[10] = system: UACC-62 melanoma
[11] = system: NCI-H460 NSCLC
[12] = system: UACC-257 melanoma
[13] = system: HCT-116 colon
[14] = system: BT-549 breast
[15] = system: NCI/ADR-RES ovarian
[16] = system: NCI-H522 lung
[17] = system: SR leukemia
[18] = system: NCI-H226 lung
[19] = system: ACHN renal
[20] = system: KM12 colon
[21] = system: NCI-H23 lung
[22] = system: A549 NSCLC
[23] = system: MCF7 breast
[24] = system: HCT-15 colon
[25] = system: SF-268 CNS
[26] = system: HOP-62 NSCLC
[27] = system: SNB-75 CNS

CC(C)c1cc(C(=O)N2Cc3ccc(CN4CCN(C)CC4)cc3C2)c(O)cc1O
GI50 [1]: 84.3 nM
TGI [1]: 12100 nM
GI50 [2]: 23.7 nM
TGI [2]: 62.9 nM
GI50 [3]: 24.4 nM
TGI [3]: 125 nM
GI50 [4]: 342 nM
TGI [4]: 17300 nM
GI50 [5]: 37.1 nM
TGI [5]: 158 nM
GI50 [6]: 142 nM
TGI [6]: 775 nM
GI50 [7]: 40.3 nM
TGI [7]: 156 nM
GI50 [8]: 131 nM
TGI [8]: 2330 nM
GI50 [9]: 34.3 nM
TGI [9]: 93.5 nM
GI50 [10]: 113 nM
TGI [10]: 1680 nM
GI50 [11]: 17.9 nM
TGI [11]: 43.6 nM
GI50 [12]: 186 nM
TGI [12]: 5190 nM
GI50 [13]: 57.6 nM
TGI [13]: 11700 nM
GI50 [14]: 32.1 nM
TGI [14]: 528 nM
GI50 [15]: 166 nM
TGI [15]: 515 nM
GI50 [16]: 20.6 nM
TGI [16]: 42.3 nM
GI50 [17]: 13.8 nM
TGI [17]: 36.8 nM
GI50 [18]: 75.8 nM
TGI [18]: 838 nM
GI50 [19]: 59.4 nM
TGI [19]: 2840 nM
GI50 [20]: 37.1 nM
TGI [20]: 12500 nM
GI50 [21]: 38.2 nM
TGI [21]: 13300 nM
GI50 [22]: 64.1 nM
TGI [22]: 16800 nM
GI50 [23]: 37.9 nM
TGI [23]: 11100 nM
GI50 [24]: 32.2 nM
TGI [24]: 10200 nM
GI50 [25]: 71.1 nM
TGI [25]: 16200 nM
GI50 [26]: 47.4 nM
TGI [26]: 357 nM
GI50 [27]: 52.5 nM
TGI [27]: 11600 nM
